{"source": "patent US20160030409A1", "about": "“METHOD FOR RELIEVING CHRONIC PAIN” (priority 2014, published 2016)", "test_system": "chronic non-malignant pain due to fibromyalgia and osteoarthritis", "experiment": "Trial experiment: Naropin injected into tender points of a patient with chronic non-malignant pain", "type": "in vivo", "protocol": "The patient was treated with the anesthetic Naropin® (generically known as ropivacaine), by injecting 0.5 cc of the anesthetic, by needle, into most tender points above and below the knees. Naropin was administered at a concentration of 5 mg/ml.\nSubsequently, after sufficient time had elapsed for the previously injected Naropin to leave the patient's body, 0.5 cc of Naropin was once again administered, at a concentration of 5 mg/ml, using the Medical International Technology, Inc. (MIT) Med-Jet® H™ needleless, pressure-based injector. The injector was set at a pressure of 150 psig. For knee pain, most tender points, approximately five to eight, above and below the knees were injected. For hip pain, most tender points, approximately five, above the trochanteric bursa were injected. For back pain, most tender points, approximately ten on each side of the back, around the sacroiliac joints were injected. A single injection was administered for each tender point selected for injection. The administration of the local anesthetic by needleless injection left painful welts at each injection site, which took approximately two to three weeks to disappear."}
{"smiles": "CCCN1CCCC[C@H]1C(=O)Nc1c(C)cccc1C", "note": "[Naropin, ropivacaine]", "values": [{"measurement": "tenderness of tender points after the welts had disappeared", "setting": "0.5 cc at 5 mg/ml by Med-Jet H needleless pressure-based injector at 150 psig", "result": "no longer tender"}, {"measurement": "pain after the welts had disappeared", "setting": "0.5 cc at 5 mg/ml by Med-Jet H needleless pressure-based injector at 150 psig, tender points of knees, hip, back", "result": "pain was diminished"}, {"measurement": "pain relief", "setting": "0.5 cc at 5 mg/ml injected by needle into most tender points above and below the knees, middle-aged patient", "result": "No pain relief"}, {"measurement": "time for welts to disappear", "setting": "needleless injection, 150 psig", "result": "two to three"}, {"measurement": "injection site reaction", "setting": "needleless injection, 150 psig, each injection site", "result": "painful welts"}]}
